Source: patent publication US10736883B2, “Triazole furan compounds as agonists of the APJ receptor” (AMGEN INC., priority 2016, dated 2020)

What was measured:
[1] = test system: isolated perfused rat hearts; assay: Ex vivo isolated perfused rat heart (Langendorff) assay, load independent inotropic/lusitropic effects; settings: percent change over vehicle; for Isolated Heart Assay dP/dtmax (%): contractility; for Isolated Heart Assay dP/dtmin (%): relaxation
Source text: Evidence for Load Independent Inotropic Effects with APJ Agonists Using Ex Vivo Assay (Isolated Perfused Rat Hearts)
Naive Sprague Dawley® SD rats (Harlan laboratories (Livermore, Calif. USA)) were anaesthetized and hearts were excised followed by cannulation in the Langendorff apparatus (Harvard apparatus, Holliston, Mass. USA) via aorta. The heart was perfused retrograde with modified oxygenated Krebs-Henseleit buffer (Skrzypiec-Spring M et al., (2007) J. Pharmacol Toxicol Methods 55: 113-126). The pressure of the solution causes the aortic valve to shut and the perfusate is then forced into the ostium and the coronary vessels. This allows the heart to beat for several hours. A balloon was inserted into the left ventricle (LV) to measure dP/dtmax (derivative of left ventricular pressure) as an index of cardiac contractility. The APJ agonist was perfused constantly in a dose dependent manner into the heart to examine cardiac contractility.
Example 210.0 was infused at different concentrations and load independent contractility was measured by index of LV dP/dtmax and the results are expressed as a percent change over vehicle. […] Example 210.0 was infused at different concentrations and load independent lusitropic effect (relaxation) was measured by index of LV dP/dtmin where results are expressed as percent change over vehicle. […] Example 51.0 was infused at different concentrations and load independent contractility was measured by index of LV dP/dtmax and the results are expressed as a percent change over vehicle. […] Example 51.0 was infused at different concentrations and load independent lusitropic effect (relaxation) was measured by index of LV dP/dtmin where results are expressed as percent change over vehicle.

[2] = test system: heart failure rat model; assay: In vivo cardiac contractility in heart failure (MI) rat model; settings: heart failure rats (LAD ligation), acute administration for 30 min
Description: Evidence for Improvement in Cardiac Contractility In Vivo in Heart Failure Rat Model
Based on the ex vivo findings in isolated heart assay, APJ agonists were dosed in vivo to investigate the translation of cardiac contractility in in vivo settings. Male Lewis rats (Charles River, USA) at 2-3 months of age were used for the study. Heart failure was induced by permanent ligation of the left descending coronary artery which results in injury to the heart with an ejection fraction of <35%. APJ agonists were administered dose dependently acutely for a period of 30 min. Administration of example compounds lead to an increase in cardiac contractility as measured by dP/dtmax (derivative of left ventricular pressure) (Table 27).

[3] = biological target: APJ receptor (Homo sapiens (Human), UniProt P35414); assay: [35S]GTPγS binding assay on membranes from CHO cells stably expressing human APJ receptor; type: biochemical; settings: membranes of CHO cells stably expressing human APJ receptor, means of several independent experiments, read-out: Activity hAPJ SPA EC50 IP
Summary of the method: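 EC50 values were obtained by non-linear regression of [35S]GTPγS (0.2 nM) binding after 90 min at RT, with nonspecific binding defined by 100 μM GTPγS. Reactions used human APJ–expressing CHO cell membranes on WGA PS beads in HEPES pH 7.5 buffer with 5 mM MgCl2, 200 mM NaCl, 3 μM GDP and 0.1% BSA.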

Sequence of APJ receptor (P35414 whole entry): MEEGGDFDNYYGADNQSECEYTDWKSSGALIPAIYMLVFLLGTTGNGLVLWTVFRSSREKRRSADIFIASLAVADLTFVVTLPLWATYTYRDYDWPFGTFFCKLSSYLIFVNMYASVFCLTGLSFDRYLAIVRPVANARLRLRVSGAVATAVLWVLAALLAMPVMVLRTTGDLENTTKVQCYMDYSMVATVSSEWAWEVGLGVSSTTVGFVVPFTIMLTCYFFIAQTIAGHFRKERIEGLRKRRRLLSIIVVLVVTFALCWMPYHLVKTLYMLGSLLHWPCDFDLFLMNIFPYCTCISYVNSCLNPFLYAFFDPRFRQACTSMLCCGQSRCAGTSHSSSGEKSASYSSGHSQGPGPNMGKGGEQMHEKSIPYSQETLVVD

| Compound | Isolated Heart Assay dP/dtmax (%) [1] [%] | Isolated Heart Assay dP/dtmin (%) [1] [%] | MI Rat Model dP/dtmax (%) [2] | EC50 [3] [nM] |
| --- | --- | --- | --- | --- |
| COc1cccc(OC)c1-n1c(NS(=O)(=O)[C@@H](C)Cc2ncc(F)cn2)nnc1-c1ccco1 (single isomer, unassigned) [Example 51.0, (2S)—N-(4-(2,6-Dimethoxyphenyl)-5-(2-furanyl)-4H-1,2,4-triazol-3-yl)-1-(5-fluoro-2-pyrimidinyl)-2-propanesulfonamide or (2R)—N-(4-(2,6-dimethoxyphenyl)-5-(2-furanyl)-4H-1,2,4-triazol-3-yl)-1-(5-fluoro-2-pyrimidinyl)-2-propanesulfonamide] | 40.6 | 33.8 | 38% | 1 |
| COc1cccc(OC)c1-n1c(NS(=O)(=O)[C@@H](C)Cc2ncc(F)cn2)nnc1-c1ccc(C)o1 (single isomer, unassigned) [Example 108.0, (2S)—N-(4-(2,6-Dimethoxyphenyl)-5-(5-methyl-2-furanyl)-4H-1,2,4-triazol-3-yl)-1-(5-fluoro-2-pyrimidinyl)-2-propanesulfonamide or (2R)—N-(4-(2,6-dimethoxyphenyl)-5-(5-methyl-2-furanyl)-4H-1,2,4-triazol-3-yl)-1-(5-fluoro-2-pyrimidinyl)-2-propanesulfonamide] | 38.8 | 30.1 | – | 0.25 |
| COc1cccc(OC)c1-n1c(NS(=O)(=O)CCN2C(=O)N(C)CC[C@@H]2C)nnc1-c1ccc(C)o1 (single isomer, unassigned) [Example 204.0, N-(4-(2,6-Dimethoxyphenyl)-5-(5-methyl-2-furanyl)-4H-1,2,4-triazol-3-yl)-2-((6S)-3,6-dimethyl-2-oxotetrahydro-1 (2H)-pyrimidinyl)ethanesulfonamide ethanesulfonamide or N-(4-(2,6-dimethoxyphenyl)-5-(5-methyl-2-furanyl)-4H-1,2,4-triazol-3-yl)-2-((6R)-3,6-dimethyl-2-oxotetrahydro-1(2H)-pyrimidinyl)ethanesulfonamide] | 24.6 | 29.0 | No effect | 0.26 |
| COc1cccc(OC)c1-n1c(NS(=O)(=O)[C@H](C)Cc2ccc(Cl)cc2)nnc1-c1ccco1 (single isomer, unassigned) [Example 205.0, (2R)-1-(4-chlorophenyl)-N-(4-(2,6-dimethoxyphenyl)-5-(2-furanyl)-4H-1,2,4-triazol-3-yl)-2-propanesulfonamide or (2S)-1-(4-chlorophenyl)-N-(4-(2,6-dimethoxyphenyl)-5-(2-furanyl)-4H-1,2,4-triazol-3-yl)-2-propanesulfonamide] | 18.8 | 20.5 | – | 2.3 |
| COc1cccc(OC)c1-n1c(NS(=O)(=O)CCc2ncc(C)cn2)nnc1-c1ccc(C)o1 [Example 26.0, N-(4-(2,6-dimethoxyphenyl)-5-(5-methyl-2-furanyl)-4H-1,2,4-triazol-3-yl)-2-(5-methyl-2-pyrimidinyl)ethanesulfonamide] | 10.20 | 11.1 | 58% | 0.42 |
| COc1cccc(OC)c1-n1c(NS(=O)(=O)CCc2ccc(F)cn2)nnc1-c1ccco1 [Example 41.0, N-(4-(2,6-dimethoxyphenyl)-5-(2-furanyl)-4H-1,2,4-triazol-3-yl)-2-(5-fluoro-2-pyridinyl)ethanesulfonamide] | 22.1 | 22.7 | – | – |
| COc1cccc(OC)c1-n1c(NS(=O)(=O)CCc2ccc(Cl)cc2)nnc1-c1ccco1 [Example 111.0, 2-(4-Chlorophenyl)-N-(4-(2,6-dimethoxyphenyl)-5-(furan-2-yl)-4H-1,2,4-triazol-3-yl)ethanesulfonamide] | 19.5 | 24.9 | 97% | 7.8 |
| COc1ncnc(OC)c1-n1c(NS(=O)(=O)[C@@H](C)[C@@H](OC(C)C)c2ncc(C)cn2)nnc1-c1ccc(C)o1 [Example 401.0, (1S,2S)-N-(4-(4,6-dimethoxypyrimidin-5-yl)-5-(5-methylfuran-2-yl)-4H-1,2,4-triazol-3-yl)-1-isopropoxy-1-(5-methylpyrimidin-2-yl)propane-2-sulfonamide] | – | – | – | 0.53 |
| COc1cccc(OC)c1-n1c(NS(=O)(=O)c2cccc(CO)c2)nnc1-c1ccc(C)o1 [Example 409.0, N-(4-(2,6-dimethoxyphenyl)-5-(5-methyl-2-furanyl)-4H-1,2,4-triazol-3-yl)-3-(hydroxymethyl)benzenesulfonamide] | – | – | – | 43 |
| (1R,2R)-N-(4-(2,6-dimethoxyphenyl)-5-(5-methyl-2-furanyl)-4H-1,2,4-triazol-3-yl)-1-hydroxy-1-(5-methyl-2-pyrimidinyl)-2-propanesulfonamide or (1S,2S)-N-(4-(2,6-dimethoxyphenyl)-5-(5-methyl-2-furanyl)-4H-1,2,4-triazol-3-yl)-1-hydroxy-1-(5-methyl-2-pyrimidinyl)-2-propanesulfonamide [Example 244.0] | – | – | – | 0.94 |
| (1R,2R)-N-(4-(2,6-dimethoxyphenyl)-5-(5-methyl-2-furanyl)-4H-1,2,4-triazol-3-yl)-1-methoxy-1-(5-methyl-2-pyrimidinyl)-2-propanesulfonamide or (1S,2S)-N-(4-(2,6-dimethoxyphenyl)-5-(5-methyl-2-furanyl)-4H-1,2,4-triazol-3-yl)-1-methoxy-1-(5-methyl-2-pyrimidinyl)-2-propanesulfonamide [Example 226.0] | – | – | – | 0.35 |
| (1R,2R)-N-(4-(2,6-dimethoxyphenyl)-5-(5-methyl-2-furanyl)-4H-1,2,4-triazol-3-yl)-1-methoxy-1-(5-methyl-2-pyrimidinyl)-2-propanesulfonamide or (1S,2S)-N-(4-(2,6-dimethoxyphenyl)-5-(5-methyl-2-furanyl)-4H-1,2,4-triazol-3-yl)-1-methoxy-1-(5-methyl-2-pyrimidinyl)-2-propanesulfonamide [Example 250.0] | – | – | – | 3.3 |
| (1R,2S)-1-(5-chloro-2-pyrimidinyl)-N-(4-(2,6-dimethoxyphenyl)-5-(5-methyl-2-furanyl)-4H-1,2,4-triazol-3-yl)-1-hydroxy-2-propanesulfonamide or (1S,2R)-1-(5-chloro-2-pyrimidinyl)-N-(4-(2,6-dimethoxyphenyl)-5-(5-methyl-2-furanyl)-4H-1,2,4-triazol-3-yl)-1-hydroxy-2-propanesulfonamide [Example 212.0] | – | – | – | 0.074 |
| (1R,2S)-1-(5-chloro-2-pyrimidinyl)-N-(4-(2,6-dimethoxyphenyl)-5-(5-methyl-2-furanyl)-4H-1,2,4-triazol-3-yl)-1-hydroxy-2-propanesulfonamide or (1S,2R)-1-(5-chloro-2-pyrimidinyl)-N-(4-(2,6-dimethoxyphenyl)-5-(5-methyl-2-furanyl)-4H-1,2,4-triazol-3-yl)-1-hydroxy-2-propanesulfonamide [Example 216.0] | – | – | – | 0.23 |
| (1S,2R)-N-(4-(2,6-dimethoxyphenyl)-5-(5-methyl-2-furanyl)-4H-1,2,4-triazol-3-yl)-1-hydroxy-1-(5-methyl-2-pyrazinyl)-2-propanesulfonamide or (1R,2S)-N-(4-(2,6-dimethoxyphenyl)-5-(5-methyl-2-furanyl)-4H-1,2,4-triazol-3-yl)-1-hydroxy-1-(5-methyl-2-pyrazinyl)-2-propanesulfonamide [Example 213.0] | – | – | – | 0.12 |
| (2R)-1-(3-cyano-5-fluoro-2-pyridinyl)-N-(4-(2,6-dimethoxyphenyl)-5-(2-furanyl)-4H-1,2,4-triazol-3-yl)-2-propanesulfonamide or (2S)-1-(3-cyano-5-fluoro-2-pyridinyl)-N-(4-(2,6-dimethoxyphenyl)-5-(2-furanyl)-4H-1,2,4-triazol-3-yl)-2-propanesulfonamide [Example 29.0] | – | – | – | 0.82 |
